The values below come from patent US20250017878A1 (Chronic Airway Therapeutics Limited, priority 2021, published 2025).

Series [1] has as its system asthmatic mice (ovalbumin-sensitized and ovalbumin-challenged). The series can be described thus: Airway responsiveness to methacholine (airway resistance Raw, forced oscillation) in murine model of asthma, Example 1. The format is in vivo, Balb/cJ mice. Conditions: for airway responsiveness to methacholine provocation (Raw), chronic treatment: drug delivered for 28 days (chow or osmotic minipump); for airway responsiveness to methacholine provocation (Raw), acute treatment: single intravenous bolus 15 minutes before methacholine. On the procedure: The results obtained in drug-treated animals were compared with those obtained in vehicle-treated counterparts (controls) in experiments performed in close temporal relationship. […] Mice were sensitized with subcutaneous injection of 25 μg of ovalbumin adsorbed to aluminum hydroxide on protocol days 2, 9, and 16. Subsequently, mice were given 50 μL of saline solution containing 25 μg of ovalbumin intranasally, on a daily basis, from protocol days 23 through 27. A group of ovalbumin-sensitized saline-challenged mice serves as controls for systemic sensitization and respiratory challenges with ovalbumin. Prior to intranasal administrations, mice were sedated with halothane vapor. For the study of Example 1, ovalbumin-sensitized and ovalbumin-challenged mice, and ovalbumin-sensitized and saline-challenged mice will be referred to as asthmatic mice and control mice, respectively. […] To examine the effects of duration of β-adrenergic ligand therapy on the phenotype of the murine model of asthma, the experimental drugs were administered either acutely or chronically to different groups of asthmatic mice. […] These concentrations were chosen based on those producing therapeutic effects in mice in previously published studies. The non-asthmatic mice were fed normal chow. Salbutamol was delivered for 28 days at a dose of 0.5 mg/kg/day using an osmotic minipump (Alzet®, #2004, Durect Corporation, Cupertino, CA). […] Airway resistance (Raw) was measured using the forced oscillation technique. The cellular composition of bronchoalveolar lavage fluid (BALF) was also determined. […] However, it was observed that the degree of airway responsiveness and the number of eosinophils recovered in BALF were lower in non-treated asthmatic mice studied in close temporal relationship with mice receiving acute β-adrenergic antagonist treatments that in those obtained in non-treated asthmatic mice studied concomitantly with mice on chronic β-adrenergic antagonist therapy. […] The complex input impedance of the respiratory system was computed and the value of the real part of respiratory system impedance at 19.75 Hz was taken to reflect the magnitude of airway resistance (Raw). To examine the degree of airway responsiveness of each animal, the values for Raw as a function of methacholine doses were plotted. The largest value for Raw achieved in response to methacholine stimulation was referred to as […]. For mice that achieved a plateau in the methacholine dose-Raw response curve, the ED50 was calculated by linear interpolation using the GraphPad Prism4 (GraphPad Software, Inc.). Results obtained for β-adrenergic drug-treated and non-treated mice were performed using the analysis of variance for multiple groups of a Student's t-test for comparing two groups. The Bonferroni test was used to examine the statistical differences between experimental groups. The effects of acute drug treatments on baseline respiratory system mechanics were assessed using a two-tailed paired t-test. A value of P<0.05 was considered significant.

Series [2] concerns β2-adrenergic receptor. The series can be described thus: Determination of β-adrenergic receptor density by radioligand (ICYP) binding in lung membranes of treated asthmatic mice, Example 2. The format is in vivo. The following applies: for change of the level of the β2-adrenergic receptor, in words: chronic treatment; for Apparent KD (of radioligand ICYP) / Bmax (β-adrenergic receptor density) / βmax (β-adrenergic receptor density): lung membranes; for Apparent KD (of radioligand ICYP): KD of ICYP binding, not of the drug; for Bmax (β-adrenergic receptor density) / βmax (β-adrenergic receptor density): mean ± SEM, n=3-5. As for the experimental part: β2-adrenergic receptor numbers were measured in asthmatic mice as follows. […] Mice were sacrificed and lung membranes were isolated as follows. Frozen lung tissue was homogenized in an ice-cold buffer containing 0.32 M sucrose and 25 mM Tris (pH 7.4) using a polytron (Pro 200, Pro Scientific, Inc.). The homogenate was centrifuged at 1000×g for 10 min at 4° C. The resulting supernatant was centrifuged at 40,000×g for 20 min at 4° C. The pellet was suspended in an ice-cold 25 mM Tris-HCl buffer (pH 7.4) and centrifuged at 40,000×g for 20 min at 4° C. The final pellet was suspended in 200 μL of 25 mM Tris-HCl (pH 7.4); membrane protein concentration was determined by BCA protein assay kit. […] The incubation was done at 37° C. for 2 h and terminated by rapid vacuum filtration through glass fiber filters. The filters were washed three times with 250 μL of cold wash buffer (25 mM Tris-HCl, pH 7.4) and the radioactivity determined in a counter. […] Receptor densities are expressed as femtomoles of sites per milligram of protein. Bmax is determined by nonlinear regression of the saturation binding curves. […] Please note that the 15-minute and 28-day time points refer to duration of drug treatment.

In series [3] the test system is asthmatic mice. The series can be described thus: Decrease in airway resistance (Raw) by period of administration, Example 8 / Table 2. It is filed as in vivo. As for the experimental part:
(§1) The periods of administration of the agents are 15 minutes, 2 days, and 28 days. […] This strongly supports the concept of combination therapy, such as with an inverse agonist and an agonist.

Series [4] has as its system mucous metaplasia in sensitized/challenged mice. The series can be described thus: Mucous metaplasia in sensitized/challenged mice (photomicrographs), Example 10. The following applies: sensitized/challenged mice after treatment. The format is in vivo.
Another series deals with β-arrestin pathway. The series can be described thus: Blockade of the β-arrestin pathway, Example 16 / FIG. 16. It is filed as cell-based.
Series [5] concerns the target β2-adrenergic receptor (Mus musculus, UniProt P18762). The series can be described thus: Upregulation of β2-adrenergic receptor density by period of administration, Example 8 / Table 2. On the set-up: from tissue. The format is in vivo, mice. As for the experimental part: as §1
The test system of series [6] is asthmatic mice. The series can be described thus: β-adrenergic receptor drugs at low and high doses on airway resistance, Example 7. It is filed as in vivo. The following applies: chronic administration in chow, high and low dose. On the procedure: For these experiments, salbutamol was used for chronic administration at 0.5 mg/kg/day with a minipump and for acute administration at 0.15 mg/kg by i.v. bolus 15 minutes prior to challenge. […] Carvedilol was used at a high dose of 2400 ppm in chow or at a low dose of 720 ppm in chow. […] In these diagrams, Ctrl=control mice, non-asthmatic, non-drug treated; NTX=asthmatic mice, non-drug treated; AC=acute administration; 2d=chronic administration for 2 days; 28d=chronic administration for 28 days. The airway resistance (Raw) is plotted as cm H2O ml^−1 s.

Series [7] has as its system asthmatic mice (ovalbumin-sensitized, challenged). The series can be described thus: Combination of carvedilol and salbutamol on airway hyperresponsiveness, Example 4. The following applies: 28 days treatment; highest dose of methacholine.
Description: Mice (Balb/cJ) aged 6 weeks were housed under specific pathogen-free conditions and fed a chicken ovalbumin-free diet. Mice were systemically sensitized with ovalbumin adsorbed to aluminum hydroxide.
To induce airway constriction, a solution containing 150 μg/mL of methacholine was infused using a syringe infusion pump. […] Each methacholine dose was administered until a plateau was reached, during which data were sampled at 1-minute intervals for 3-5 minutes and then averaged.
For series [8] the following is noted: 10 patients with cystic fibrosis versus healthy adults; cited from earlier work.
Series [9] relates to asthmatic mice. The series can be described thus: Chronic treatment with metoprolol and timolol on airway responsiveness in asthmatic mice, Example 9. The format is in vivo. The following applies: 7 days; metoprolol 20 mg/kg 3× daily s.c., timolol 20 mg/kg in chow; methacholine challenge. On the procedure:
Airway resistance (Raw) was measured as in Example 1. The results were compared to historical controls as shown in FIG. 9B: Ctrl, no drug treatment, no challenge with methacholine; NTX, no drug treatment, challenged with methacholine.

Chain of β2-adrenergic receptor (Mus musculus, UniProt P18762) (P18762 whole entry): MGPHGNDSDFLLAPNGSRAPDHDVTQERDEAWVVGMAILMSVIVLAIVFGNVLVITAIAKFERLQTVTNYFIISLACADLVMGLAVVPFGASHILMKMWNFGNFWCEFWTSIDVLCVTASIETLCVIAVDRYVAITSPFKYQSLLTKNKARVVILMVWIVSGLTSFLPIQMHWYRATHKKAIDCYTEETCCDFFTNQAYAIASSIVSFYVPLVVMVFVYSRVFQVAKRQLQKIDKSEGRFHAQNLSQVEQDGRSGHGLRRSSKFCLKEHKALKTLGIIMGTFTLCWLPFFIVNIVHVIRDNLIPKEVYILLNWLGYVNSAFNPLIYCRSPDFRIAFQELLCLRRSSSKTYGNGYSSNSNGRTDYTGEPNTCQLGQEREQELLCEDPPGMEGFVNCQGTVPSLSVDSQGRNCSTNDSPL

With `C=CCc1ccccc1OCC(O)CNC(C)C` (stereo not drawn) [Alprenolol, alprenolol], in series [1], the “airway responsiveness to methacholine provocation (Raw), chronic treatment” value (“airway responsiveness … chronic treatment” below) is reported as “provides no benefit upon chronic administration”. Besides, the “airway responsiveness to methacholine provocation (Raw), acute treatment” value (shortened to “airway responsiveness … acute treatment”) in series [1] is reported as “airway responsiveness was diminished”. Moreover, in the series on β2-adrenergic receptor [2], the “change of the level of the β2-adrenergic receptor, in words” value is recorded as “slight decrease of the level of the 2-adrenergic receptor”. Moreover, the figures for the “Apparent KD (of radioligand ICYP)” value in the series on β2-adrenergic receptor [2] (drug treatment 15 Minutes) and with β2-adrenergic receptor [2] (drug treatment 28 Days) were “(453.6 ± 86.33) pM” and “(290.9 ± 55.07) pM”, respectively. Also, in the series with β2-adrenergic receptor [2] (drug treatment 15 Minutes), the “Bmax (β-adrenergic receptor density)” value was 299.5 ± 12.19 femtomoles of sites per milligram of protein. Moreover, the “βmax (β-adrenergic receptor density)” value in the series on β2-adrenergic receptor [2] (drug treatment 28 Days) is given as 179.2 ± 53.05 femtomoles of sites per milligram of protein. For the same compound, the figures for the “Decreased Raw” value with asthmatic mice [3] (15 minutes administration), in the series on asthmatic mice [3] (2 days administration) and in the series on asthmatic mice [3] (28 days administration) were “yes”, “no” and “no”, respectively. Also, in [4], the mucous metaplasia entry is “no improvement in mucous metaplasia”. The “block of the β-arrestin pathway” value in the series on β-arrestin pathway was “did not block the β-arrestin pathway”. Also, the entries for the “Increased β2AR density” value on β2-adrenergic receptor [5] (15 minutes administration), on β2-adrenergic receptor [5] (2 days administration) and at β2-adrenergic receptor [5] (28 days administration) were “yes”, “no” and “no”, respectively.
In the case of `COc1ccccc1OCCNCC(O)COc1cccc2[nH]c3ccccc3c12` (stereo not drawn) [Carvedilol, carvedilol], in series [1], the “airway responsiveness … chronic treatment” value is reported as “reduced the responsiveness of asthmatic mice to methacholine provocation”. Besides, the “airway responsiveness … acute treatment” value in series [1] is listed as “enhanced the airway responsiveness in the asthmatic mice”. Further, the “increase of the level of β2-adrenergic receptors over the non-treated mice” value with β2-adrenergic receptor [2] (chronic administration, versus untreated methacholine-challenged asthmatic mice) is given as “over 10 fold”. In addition, the “Apparent KD (of radioligand ICYP)” value in the series with β2-adrenergic receptor [2] (drug treatment 15 Minutes) is reported as “(565.2 ± 192.8) pM”; in the series on β2-adrenergic receptor [2] (drug treatment 28 Days) it was “(1444.0 ± 202.0) pM”. Besides, the “Bmax (β-adrenergic receptor density)” value in the series on β2-adrenergic receptor [2] (drug treatment 15 Minutes) is on record as 86.3 ± 19.42 femtomoles of sites per milligram of protein. The “βmax (β-adrenergic receptor density)” value in the series on β2-adrenergic receptor [2] (drug treatment 28 Days) was 904.1 ± 43.46 femtomoles of sites per milligram of protein. In the series on asthmatic mice [6], the “protection from airway hyperresponsiveness” value is recorded as “providing protection from airway hyperresponsiveness with chronic administration”. Also, the figures for the “Decreased Raw” value with asthmatic mice [3] (15 minutes administration), in the series on asthmatic mice [3] (2 days administration) and with asthmatic mice [3] (28 days administration) were “no”, “no” and “yes”, respectively. Also, the “block of the β-arrestin pathway” value with β-arrestin pathway was “did not block the β-arrestin pathway”. For the same compound, the results for the “Increased β2AR density” value at β2-adrenergic receptor [5] (15 minutes administration), on β2-adrenergic receptor [5] (2 days administration) and on β2-adrenergic receptor [5] (28 days administration) were “no”, “no” and “yes”, respectively. The “bronchoconstriction / airway hyperresponsiveness to allergen and methacholine challenge” value in series [7] is “higher bronchoconstriction than these treatments but less than the non-drug treated sensitized and challenged (NTX S/C) mice”.
Turning to `CC(C)(C)NCC(O)c1ccc(O)c(CO)c1` (stereo not drawn) [Salbutamol, salbutamol], the “airway responsiveness … chronic treatment” value in [1] is “no protection was observed”. The “airway responsiveness … acute treatment” value in series [1] was “reduced the level of airway responsiveness to methacholine provocation and the level of airway resistance”. Further, in the series with β2-adrenergic receptor [2], the “change of the level of the β2-adrenergic receptor, in words” value is given as “slight decrease”. Further, the “Apparent KD (of radioligand ICYP)” value in the series on β2-adrenergic receptor [2] (drug treatment 15 Minutes) is reported as “(228.8 ± 33.07) pM”; with β2-adrenergic receptor [2] (drug treatment 28 Days), “(225.4 ± 41.79) pM”. In addition, the “Bmax (β-adrenergic receptor density)” value in the series on β2-adrenergic receptor [2] (drug treatment 15 Minutes) was 256.5 ± 29.24 femtomoles of sites per milligram of protein. Besides, the “βmax (β-adrenergic receptor density)” value with β2-adrenergic receptor [2] (drug treatment 28 Days) was 97.0 ± 23.02 femtomoles of sites per milligram of protein. Besides, the “Decreased Raw” value is given as “yes” in the series on asthmatic mice [3] (15 minutes administration), “no” in the series on asthmatic mice [3] (2 days administration) and “no” with asthmatic mice [3] (28 days administration). Besides, the “Increased β2AR density” value was “yes” at β2-adrenergic receptor [5] (15 minutes administration), “no” on β2-adrenergic receptor [5] (2 days administration) and “no” at β2-adrenergic receptor [5] (28 days administration). Besides, the “bioavailability of inhaled drug” value in series [8] is given as “greater than that in healthy adults”.
For the compound `COCCc1ccc(OCC(O)CNC(C)C)cc1` (stereo not drawn) [metoprolol], the “airway hyperresponsiveness after chronic treatment” value with asthmatic mice [9] is reported as “effective in reducing airway hyperresponsiveness in asthmatic mice”.
`CC(C)NCC(O)COc1cccc2ccccc12` (stereo not drawn) [propranolol]: the “block of the β-arrestin pathway” value with β-arrestin pathway is on record as “did not block the β-arrestin pathway”.
Turning to `CC(C)(C)NC[C@H](O)COc1nsnc1N1CCOCC1` [timolol], the “airway hyperresponsiveness after chronic treatment” value in the series with asthmatic mice [9] is “effective in reducing airway hyperresponsiveness in asthmatic mice”.
